Reference: paper PMC7353089, “The Hepatotoxicity of Alantolactone and Germacrone: Their Influence on Cholesterol and Lipid Metabolism in Differentiated HepaRG Cells” (Nutrients, 2020)
Entries after “also recorded” stand apart in the source; their conditions may differ. Where two headings read alike, the source gives them in different places.

What was measured:
HMGCR = assay: Western blot protein level in dHepaRG cells; assay type: cell-based, human
Experimental: (§1) All the treatments were performed in triplicates. Protein concentration was measured using the bicinchoninic acid (BCA) protein assay (Sigma Aldrich, Prague, Czech Republic) according to the manufacturer’s instructions. The proteins were loaded onto a 10% sodium dodecyl sulfate (SDS; w/v)–polyacrylamide gel (with 4% stacking gel) and separated by SDS-PAGE electrophoresis. The proteins were transferred onto a nitrocellulose membrane using wet blot (100 V, 90 min). The membrane blocking was performed in a 5% non-fat dry milk/TRIS-buffered saline-Tween-20 (TBS-T) solution at room temperature for 2 h. Incubation with primary antibodies was accomplished overnight at 10 °C. β-actin was used as housekeeping protein (the list of primary antibodies in Table S2). Afterwards, the membrane was washed with 0.05% TBS-T solution for 6 × 5 min, incubated with respective secondary antibodies conjugated with horseradish peroxidase (bovine anti-rabbit (sc2370, Santa Cruz Biotechnology, Santa Cruz, CA, USA) at room temperature for 1.5 h, and rinsed with TBS-T solution for 6 × 5 min. Visualization of protein bands was carried out using a chemiluminescence kit (GE Healthcare, Buckinghamshire, UK).

STAT3 = assay: Western blot protein level in dHepaRG cells; assay type: cell-based, human; details: highest tested concentration (equal to IC50)
Experimental: as §1

RIP1 = assay: Western blot protein level in dHepaRG cells; assay type: cell-based, human
Experimental: as §1

ICAM-1 = assay: Western blot protein level in dHepaRG cells; assay type: cell-based, human
Experimental: as §1

NF-κB = assay: Western blot protein level in dHepaRG cells; assay type: cell-based, human
Experimental: as §1

SREBP-2 (F) = assay: Western blot protein level in dHepaRG cells; assay type: cell-based, human; details: single exposure
Experimental: as §1

p-STAT3(Y705) = assay: Western blot protein level in dHepaRG cells; assay type: cell-based, human; details: for phosphorylated p-STAT3(Y705) protein amount: 12-h exposure
Experimental: as §1

MCF-7 = details: read-out: Previously Reported IC50 Values (24 h), cited from earlier work
G6PC mRNA = assay: RT-qPCR mRNA expression in dHepaRG cells; assay type: cell-based, human; details: single exposure, also at other than toxic concentrations
Experimental: (§2) Three concentrations were selected for each compound (non-toxic, non-toxic/slightly toxic and toxic). […] The expression changes of genes and proteins related to cholesterol metabolism were measured in both single and multiple exposure experiments.
(§3) All treatments were performed in triplicates and every experiment was performed three times. The cells were washed twice with ice cold phosphate-buffered saline (PBS), scrapped and stored at −80 °C until use. Total RNA from cells was isolated using TriReagent according to the manufacturer’s instructions (Biotech, Prague, Czech Republic). The purified RNA was dissolved in 40 µL of diethyl pyrocarbonate (DEPC)-treated water (0.01% DEPC in HPLC water, autoclaved) and stored at −80 °C. The measurement of absorbance at 260 and 280 nm using the NanoDrop ND-1000 UV–VIS Spectrophotometer (Thermo Fisher Scientific, Pardubice, Czech Republic) was used to determine RNA yields and purity. […] Fluorescence data were recorded at the end of each amplification step. Relative expression levels of the target genes were calculated as fold changes in triplicates for each group using the 2^−ΔΔCt method [28] by normalization to the geometric mean of the Ct values of Sdha and Ywhaz, which were used as reference genes.

[1] = tested on: proliferative liver (HepG2, HuH-7, LO2), breast (MCF7, MDA-MB-231), and glioblastoma cancer cell lines; details: after 12 to 24 h; read-out: IC50 values in proliferative cancer cell lines (approximate); cited from earlier work
PLIN4 mRNA = assay: RT-qPCR mRNA expression in dHepaRG cells; assay type: cell-based, human; details: single exposure, 6, 12 and 24 h
Experimental: (§4) Three concentrations were selected for each compound (non-toxic, non-toxic/slightly toxic and toxic). The cholesterol level of the dHepaRG cells was measured after a multiple exposure of the highest non-toxic concentrations of tested compounds. […] The expression changes of genes and proteins related to cholesterol metabolism were measured in both single and multiple exposure experiments.
as §3

PLIN2 mRNA = assay: RT-qPCR mRNA expression in dHepaRG cells; assay type: cell-based, human; details: single exposure, the highest concentrations
Experimental: as §4, §3

SCD mRNA = assay: RT-qPCR mRNA expression in dHepaRG cells; assay type: cell-based, human; details: single exposure, 6, 12 and 24 h
Experimental: Three concentrations were selected for each compound (non-toxic, non-toxic/slightly toxic and toxic).
All treatments were performed in triplicates and every experiment was performed three times. The cells were washed twice with ice cold phosphate-buffered saline (PBS), scrapped and stored at −80 °C until use. Total RNA from cells was isolated using TriReagent according to the manufacturer’s instructions (Biotech, Prague, Czech Republic). The purified RNA was dissolved in 40 µL of diethyl pyrocarbonate (DEPC)-treated water (0.01% DEPC in HPLC water, autoclaved) and stored at −80 °C. The measurement of absorbance at 260 and 280 nm using the NanoDrop ND-1000 UV–VIS Spectrophotometer (Thermo Fisher Scientific, Pardubice, Czech Republic) was used to determine RNA yields and purity. Subsequently, the RNA (4 µg) was treated with 2 U of DNase I (New England Biolabs, Ipswich, MA, USA) in a final volume of 30 µL for 25 min at 37 °C, 1.5 µL of 0.1 M ethylenediaminetetraacetic acid was added and the DNAse was inactivated by heat (5 min at 75 °C). […] Fluorescence data were recorded at the end of each amplification step. Relative expression levels of the target genes were calculated as fold changes in triplicates for each group using the 2^−ΔΔCt method [28] by normalization to the geometric mean of the Ct values of Sdha and Ywhaz, which were used as reference genes.

dHepaRG cells = assay: MTT cell viability assay; assay type: cell-based, human; details: for toxicity toward dHepaRG cells compared with cancer cells: comparison of own IC50 with previously reported IC50 values; for cell viability: 24 and 72 h, MTT method and LDH leakage
Experimental: Cryopreserved HepaRG cells were obtained from Biopredic International (Rennes, France). Undifferentiated cells were seeded according to the supplier protocols in 96-well plates for the viability assays, and in 6-well plates for the mRNA and western blot measurements. The cells were cultured for two weeks in Williams E Medium with GlutaMAX™ (Invitrogen, Paisley, UK) supplemented with 10% fetal bovine serum, 2 mM glutamine, 100 IU/mL penicillin, 100 μg/mL streptomycin, 5 μg/mL insulin, and 50 μM hydrocortisone hemisuccinate. The cells were afterwards cultured for another 2-week period in the same medium supplemented with 1.7% DMSO. The medium was replaced every 2–3 days.
In the 96-well plates, viability was evaluated using the methylthiazole-tetrazolium (MTT) colorimetric assay. After 24 and 72-h exposure, 25 μL of MTT solution (3 mg of MTT in 1 mL of phosphate buffered saline, PBS) were added to each well. The plates were incubated at 37 °C for an additional 2 h, after which the medium was removed and the formed formazan was dissolved in 50 μL of 0.08 M HCl in isopropanol during 30 min shaking. The absorbance in each well was read at 570 and 690 nm using a spectrophotometer (Tecan Infinite M200, Tecan, Männedorf, Switzerland).

U87 = details: U87, 24 h, read-out: Previously Reported IC50 Values (24 h), cited from earlier work
ICAM-1 mRNA = assay: RT-qPCR mRNA expression in dHepaRG cells; assay type: cell-based, human; details: the highest concentration
Experimental: as §2, §3

[2] = dHepaRG cell viability, 24 h single exposure, read-out: IC50 ± SD, MTT
[3] = dHepaRG cell viability, 72 h single exposure, read-out: IC50 ± SD, MTT
[4] = dHepaRG cells, 24-h treatment, read-out: half-maximal inhibitory concentration of cell viability (approximate)
[5] = the higher concentrations after 12 and 24-h exposure

SMILES | total STAT3 protein level (STAT3) | RIP1 protein expression (RIP1; 12-h exposure) | G6PC mRNA expression (G6PC mRNA) | IC50 [1] [µM] | PLIN4 mRNA level (PLIN4 mRNA) | PLIN2 mRNA (PLIN2 mRNA) | SCD mRNA level (SCD mRNA) | toxicity toward dHepaRG cells compared with cancer cells (dHepaRG cells) | IC50 (dHepaRG cells; [2]) [µM] | IC50 (dHepaRG cells; [3]) [µM] | highest non-toxic concentration (dHepaRG cells; dHepaRG cells) [µM] | IC50 (dHepaRG cells; [4]) [µM] | cell viability (dHepaRG cells; dHepaRG cells) | also measured
C=C1C(=O)O[C@@H]2C[C@@]3(C)CCC[C@H](C)C3=C[C@H]12 [ATL, alantolactone] | decrease | decreased level | dysregulated | 10 to 30 | decreased | induced | significantly decreased | significantly lesser toxicity | 58.9 ± 3.5 | 57.2 ± 1 | 30 | ~60 | concentration-dependent decrease in the cell viability | HMGCR protein amount (HMGCR; single exposure, after 12 and 24 h): decrease; HMGCR protein level (HMGCR; single exposure, the higher concentrations after 12 and 24-h exposure): decrease; RIP1 protein expression (RIP1; 24-h exposure, highest concentration): decreased; ICAM-1 protein amount (ICAM-1; all concentrations after 12-h exposure): significantly decreased; NF-κB protein level (NF-κB; 24-h exposure, the highest concentration): significant decrease; functional SREBP-2 (F) protein level (SREBP-2 (F); the highest concentration): significantly decreased; phosphorylated p-STAT3(Y705) protein amount (p-STAT3(Y705); all concentrations tested): decreased; also recorded: inhibition; IC50 (MCF-7; MCF-7, 24 h): 36 µM; IC50 (U87; ref 10): 20 µM; IC50 (U87; ref 34): 33 µM; ICAM-1 mRNA amount (ICAM-1 mRNA; 12-h and 24-h exposure): induced
CC(C)=C1C/C=C(\C)CC/C=C(\C)CC1=O [GER, germacrone] | decrease | decreased level | dysregulated | 150 to 250 | no significant change | induced | significantly decreased | similar | 256 ± 5.7 | 242 ± 17.4 | 100 | ~250 | concentration-dependent decrease in the cell viability | HMGCR protein level (HMGCR; multiple exposure: four applications every 24 h, analyzed 12 h after the last, 30 μM ATL, 100 μM GER, 20 μM LOV): slight decrease; HMGCR protein amount (HMGCR; single exposure, only after 12-h exposure): decrease; HMGCR protein level (HMGCR; single exposure, the highest concentration after 12-h exposure): decrease; ICAM-1 protein amount (ICAM-1; [5]): significantly decreased; NF-κB protein level (NF-κB; 12-h exposure): decreased level; functional SREBP-2 (F) protein level (SREBP-2 (F); 12-h exposure): increase; functional SREBP-2 (F) protein level (SREBP-2 (F); 24-h exposure): no change in protein level; phosphorylated p-STAT3(Y705) protein amount (p-STAT3(Y705); both higher concentrations): decreased; p-STAT3 (Y705) phosphorylation (p-STAT3(Y705); [5]): inhibition; IC50 (MCF-7; MCF7, 24 h, ref 11): 195 µM; IC50 (MCF-7; MCF7, 24 h, ref 37): > 200 µM; IC50 (U87; ref 36): 175 µM; ICAM-1 mRNA amount (ICAM-1 mRNA; 6-h and 12-h exposure): induced
